Assay results from patent US20070287699A1, “ANTIVIRAL AGENTS” (ViroBay, Inc., priority 2006, published 2007).

Tested on: HCV replicon RNA replication in human Huh7 hepatoma cells
Assay: HCV replicon assay (activity levels from either or both of HCV replicon assay 1, Huh7/Clone A RT-qPCR, and assay 2, Huh7 ET luc-ubi-neo/ET)
Type: cell-based, Hepatitis C virus (HCV)
Conditions: Hepatitis C virus, Huh-7, either or both HCV replicon assays: Huh7/Clone A, 48 hours, 72 hours, Luc activity or RT-PCR, read-out: inhibit HCV replication at IC50 levels or estimated IC50 levels
In short: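 Huh7/Clone A subgenomic replicon cells treated 48 h at 37° C. with 7 serial dilutions in triplicate (0.5% DMSO final). Replicon RNA measured by TaqMan RT-qPCR on the neo gene, normalized to RiboGreen total RNA; untreated cells set as 100% for IC50.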

SMILES | IC50
CN1CCN(c2cc3c(cc2F)c(=O)c(-c2noc(CC4CC4)n2)cn3CC2CCCCC2)CC1 [Compound 14, 1-cyclohexylmethyl-3-(5-cyclopropylmethyl-[1,2,4]oxadiazol-3-yl)-6-fluoro-7-(4-methyl-piperazin-1-yl)-1H-quinolin-4-one] | < 10 µM
O=c1c(-c2noc(Cc3ccccc3)n2)cn(Cc2ccc(C(F)(F)F)cc2F)c2ccccc12 [Compound 94, 3-(5-benzyl-[1,2,4]oxadiazol-3-yl)-1-(2-fluoro-4-trifluoromethyl-benzyl)-1H-quinolin-4-one] | > 10 µM
CN1CCN(c2cc3c(cc2F)c(=O)c(-c2noc(C(CCCC(N)=O)c4ccccc4)n2)cn3Cc2ccc(Cl)cc2)CC1 (centres unmarked) [Compound 80, 5-{3-[1-(4-chloro-benzyl)-6-fluoro-7-(4-methyl-piperazin-1-yl)-4-oxo-1,4-dihydro-quinolin-3-yl]-[1,2,4]oxadiazol-5-yl}-5-phenyl-pentanamide] | < 2 µM
COc1ccc2c(c1)c(=O)c(-c1noc(Cc3ccccc3)n1)cn2CC1CCCCC1 [Compound 10, 3-(5-benzyl-[1,2,4]oxadiazol-3-yl)-1-cyclohexylmethyl-6-methoxy-1H-quinolin-4-one] | > 10 µM
COc1cc2c(=O)c(-c3nc(Cc4ccccc4)no3)cn(CC3CCCCC3)c2cc1OC [Compound 170, 3-(3-benzyl-[1,2,4]oxadiazol-5-yl)-1-cyclohexylmethyl-6,7-dimethoxy-1H-quinolin-4-one] | > 10 µM
CN1CCN(c2cc3c(cc2F)c(=O)c(-c2noc(C(CCC(N)=O)c4ccccc4)n2)cn3Cc2ccc(Cl)cc2)CC1 (centres unmarked) [Compound 67, 4-{3-[1-(4-chloro-benzyl)-6-fluoro-7-(4-methyl-piperazin-1-yl)-4-oxo-1,4-dihydro-quinolin-3-yl]-[1,2,4]oxadiazol-5-yl}-4-phenyl-butyramide] | < 10 µM
O=c1c(-c2noc(Cc3ccc(F)cc3)n2)cn(Cc2ccc(Cl)cc2)c2cc(N3CCN(c4ccccn4)CC3)c(F)cc12 [Compound 50, 1-(4-chlorobenzyl)-6-fluoro-3-(5-(4-fluorobenzyl)-1,2,4-oxadiazol-3-yl)-7-(4-(pyridin-2-yl)piperazin-1-yl)quinolin-4(1H)-one] | > 10 µM
CN1CCN(c2cc3c(cc2F)c(=O)c(-c2noc(Cc4ccc(F)cc4)n2)cn3Cc2ccc(C(F)(F)F)cc2)CC1 [Compound 37, 6-fluoro-3-[5-(4-fluoro-benzyl)-[1,2,4]oxadiazol-3-yl]-7-(4-methyl-piperazin-1-yl)-1-(4-trifluoromethyl-benzyl)-1H-quinolin-4-one] | < 2 µM
CN1CCN(c2cc3c(cc2F)c(=O)c(-c2noc(Cc4ccccc4)n2)cn3Cc2ccc(Cl)cc2)CC1 [Compound 8, 3-(5-benzyl-[1,2,4]oxadiazol-3-yl)-1-(4-chloro-benzyl)-6-fluoro-7-(4-methyl-piperazin-1-yl)-1H-quinolin-4-one] | < 2 µM
CC(C)(c1ccc(Cl)cc1)c1nc(-c2cn(Cc3ccc(C(F)(F)F)cc3)c3cc(N4CCS(=O)(=O)CC4)c(F)cc3c2=O)no1 [Compound 127, 3-(5-(2-(4-chlorophenyl)propan-2-yl)-1,2,4-oxadiazol-3-yl)-6-fluoro-7-dioxo-thiomorpholino-1-(4-(trifluoromethyl)benzyl)quinolin-4(1H)-one] | < 10 µM
CC(C)(c1ccccc1)c1nc(-c2cn(Cc3ccc(C(F)(F)F)cc3)c3cc(N4CCS(=O)(=O)CC4)c(F)cc3c2=O)no1 [Compound 100, 7-(1,1-dioxo-thiomorpholin-4-yl)-6-fluoro-3-[5-(1-methyl-1-phenyl-ethyl)-[1,2,4]oxadiazol-3-yl]-1-(4-trifluoromethyl-benzyl)-1H-quinolin-4-one] | < 0.5 µM
CC(C)(c1ccccc1)c1nc(-c2cn(Cc3ccc(C(F)(F)F)cc3)c3cc(N4CCSCC4)c(F)cc3c2=O)no1 [Compound 101, 6-fluoro-3-[5-(1-methyl-1-phenyl-ethyl)-[1,2,4]oxadiazol-3-yl]-7-thiomorpholin-4-yl-1-(4-trifluoromethyl-benzyl)-1H-quinolin-4-one] | < 0.5 µM
CC(C)(c1ccc(F)cc1)c1nc(-c2cn(Cc3ccc(C(F)(F)F)cc3)c3cc(N4CCNC(=O)C4)c(F)cc3c2=O)no1 [Compound 125, 6-fluoro-3-(5-(2-(4-fluorophenyl)propan-2-yl)-1,2,4-oxadiazol-3-yl)-7-(3-oxopiperazin-1-yl)-1-(4-(trifluoromethyl)benzyl)quinolin-4(1H)-one] | < 0.5 µM
CN1CCN(c2cc3c(cc2F)c(=O)c(-c2nnc(Cc4ccccc4)o2)cn3Cc2ccc(Cl)cc2)CC1 [Compound 164, 3-(5-benzyl-[1,3,4]oxadiazol-2-yl)-1-(4-chloro-benzyl)-6-fluoro-7-(4-methyl-piperazin-1-yl)-1H-quinolin-4-one] | < 10 µM
COc1ccc2c(=O)c(-c3noc(Cc4ccccc4)n3)cn(Cc3ccc(C(F)(F)F)cc3)c2c1 [Compound 68, 3-(5-benzyl-oxadiazol-3-yl)-7-methoxy-1-(4-trifluoromethyl-benzyl)-1H-quinolin-4-one] | > 10 µM
COc1ccc2c(c1)c(=O)c(-c1noc(Cc3ccccc3)n1)cn2Cc1ccc(Cl)cc1 [Compound 11, 3-(5-benzyl-[1,2,4]oxadiazol-3-yl)-1-(4-chloro-benzyl)-6-methoxy-1H-quinolin-4-one] | > 10 µM
Cc1cccc(Cc2nc(-c3cn(CC4CCCCC4)c4cc(N5CCN(C)CC5)c(F)cc4c3=O)no2)c1 [Compound 19, 1-cyclohexylmethyl-6-fluoro-3-[5-(3-methyl-benzyl)-[1,2,4]oxadiazol-3-yl]-7-(4-methyl-piperazin-1-yl)-1H-quinolin-4-one] | < 10 µM
NCCNc1cc2c(cc1F)c(=O)c(-c1noc(Cc3ccccc3)n1)cn2Cc1ccc(C(F)(F)F)cc1 [Compound 75, 7-(2-amino-ethylamino)-3-(5-benzyl-[1,2,4]oxadiazol-3-yl)-6-fluoro-1-(4-trifluoromethyl-benzyl)-1H-quinolin-4-one] | > 10 µM
COC(=O)CNc1cc2c(cc1F)c(=O)c(-c1noc(Cc3ccccc3)n1)cn2Cc1ccc(C(F)(F)F)cc1F [Compound 66, methyl[3-(5-benzyl-[1,2,4]oxadiazol-3-yl)-6-fluoro-1-(2-fluoro-4-trifluoromethyl-benzyl)-4-oxo-1,4-dihydro-quinolin-7-ylamino]-acetate] | > 10 µM
COc1cc2c(=O)c(-c3noc(Cc4ccccc4)n3)cn(Cc3ccc(Cl)cc3)c2cc1OC [Compound 1, 3-(5-Benzyl-[1,2,4]oxadiazol-3-yl)-1-(4-chloro-benzyl)-6,7-dimethoxy-1H-quinolin-4-one] | > 10 µM
C[C@H](c1ccccc1)n1cc(-c2noc(C(C)(C)c3ccccc3)n2)c(=O)c2cc(F)c(N3CCOCC3)cc21 [Compound 145, (R)-6-fluoro-7-morpholino-1-(1-phenylethyl)-3-(5-(2-phenylpropan-2-yl)-1,2,4-oxadiazol-3-yl)quinolin-4(1H)-one] | > 10 µM
CN1CCN(c2cc3c(cc2F)c(=O)c(-c2noc(C(CCCC(=O)O)c4ccccc4)n2)cn3Cc2ccc(Cl)cc2)CC1 (centres unmarked) [Compound 81, 5-{3-[1-(4-chloro-benzyl)-6-fluoro-7-(4-methyl-piperazin-1-yl)-4-oxo-1,4-dihydro-quinolin-3-yl]-[1,2,4]oxadiazol-5-yl}-5-phenyl-pentanoic acid] | < 10 µM
CN1CCN(c2cc3c(cc2F)c(=O)c(-c2noc(Cc4ccc(F)cc4)n2)cn3C2(c3ccc(C(F)(F)F)cc3)CC2)CC1 [Compound 88b, 6-fluoro-3-[5-(4-fluoro-benzyl)-[1,2,4]oxadiazol-3-yl]-7-(4-methyl-piperazin-1-yl)-1-[1-(4-trifluoromethyl-phenyl)-cyclopropyl]-1H-quinolin-4-one] | < 2 µM
CN1CCN(c2cc3c(cc2F)c(=O)c(-c2noc(Cc4c(F)cccc4F)n2)cn3Cc2ccc(Cl)cc2)CC1 [Compound 33, 1-(4-chloro-benzyl)-3-[5-(2,6-difluoro-benzyl)-[1,2,4]oxadiazol-3-yl]-6-fluoro-7-(4-methyl-piperazin-1-yl)-1H-quinolin-4-one] | < 10 µM
CN1CCN(c2cc3c(cc2F)c(=O)c(-c2noc(C(CCCC#N)c4ccccc4)n2)cn3Cc2ccc(C(F)(F)F)cc2F)CC1 (centres unmarked) [Compound 88a, 5-{3-[6-fluoro-1-(2-fluoro-4-trifluoromethyl-benzyl)-7-(4-methyl-piperazin-1-yl)-4-oxo-1,4-dihydro-quinolin-3-yl]-[1,2,4]oxadiazol-5-yl}-5-phenyl-pentanenitrile] | < 0.5 µM
CN1CCN(c2cc3c(cc2F)c(=O)c(-c2noc(CC(C)(C)C)n2)cn3Cc2ccc(Cl)cc2)CC1 [Compound 21, 1-(4-chloro-benzyl)-3-[5-(2,2-dimethyl-propyl)-[1,2,4]oxadiazol-3-yl]-6-fluoro-7-(4-methyl-piperazin-1-yl)-1H-quinolin-4-one] | > 10 µM
CN1CCN(c2cc3c(cc2F)c(=O)c(-c2noc(Cc4cccnc4)n2)cn3Cc2ccc(Cl)cc2)CC1 [Compound 62, 1-(4-chloro-benzyl)-6-fluoro-7-(4-methyl-piperazin-1-yl)-3-(5-pyridin-3-ylmethyl-[1,2,4]oxadiazol-3-yl)-1H-quinolin-4-one] | > 10 µM
CN1CCN(c2cc3c(cc2F)c(=O)c(-c2noc(C4(c5ccccc5)CC4)n2)cn3C2(c3ccc(C(F)(F)F)cc3)CC2)CC1 [Compound 90, 6-fluoro-7-(4-methyl-piperazin-1-yl)-3-[5-(1-phenyl-cyclopropyl)-[1,2,4]oxadiazol-3-yl]-1-[1-(4-trifluoromethyl-phenyl)-cyclopropyl]-1H-quinolin-4-one] | > 10 µM
O=c1c(-c2noc(Cc3ccccc3)n2)cn(Cc2ccc(C(F)(F)F)cc2F)c2cc(N3CCCNCC3)c(F)cc12 [Compound 38, 3-(5-benzyl-[1,2,4]oxadiazol-3-yl)-7-[1,4]diazepan-1-yl-6-fluoro-1-(2-fluoro-4-trifluoromethyl-benzyl)-1H-quinolin-4-one] | < 0.5 µM
